Source: ChEMBL document CHEMBL1201862, “PubChem BioAssay data set” (2004)
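Five concentrations, 48 hours, 96-well plates. Here, GI50 denotes the concentration required for 50% inhibition of growth.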 Activity calls are given as the source filed them. Cut-off read from the data, not from the text of the source: active = GI50 up to about 1.1 µM and inactive = higher.

What was measured:
Test in all cases: NCI anticancer screen, dose series, 48 h
[1] = test system: U-251
[2] = test system: SF-539
[3] = test system: HOP-92
[4] = test system: HCT-15
[5] = test system: MCF7
[6] = test system: KM12
[7] = test system: HCT-116
[8] = test system: OVCAR-4
[9] = test system: IGROV-1
[10] = test system: UACC-62
[11] = test system: HOP-62
[12] = test system: SK-OV-3
[13] = test system: SK-MEL-28
[14] = test system: HT-29
[15] = test system: CCRF-CEM
[16] = test system: SW-620
[17] = test system: K562
[18] = test system: M14
[19] = test system: UACC-257
[20] = test system: MDA-MB-435

Row | Structure (SMILES) | GI50 [1] | GI50 [2] | GI50 [3] | GI50 [4] [µM] | GI50 [5] | GI50 [6] | GI50 [7] | GI50 [8] | GI50 [9] | GI50 [10] | GI50 [11] | GI50 [12] | GI50 [13] | GI50 [14] | GI50 [15] | GI50 [16] | GI50 [17] | GI50 [18] | GI50 [19] | GI50 [20]
1 | O=c1cc(O)ccn1C1C=C(CO)C(O)C1O (stereo not given) | > 625 µM (inactive) | > 625 µM (inactive) | 192 µM (inactive) | > 625 | > 625 µM (inactive) | > 625 µM (inactive) | 263 µM (inactive) | > 625 µM (inactive) | > 625 µM (inactive) | > 625 µM (inactive) | > 625 µM (inactive) | > 625 µM (inactive) | > 625 µM (inactive) | > 625 µM (inactive) | > 625 µM (inactive) | > 625 µM (inactive) | – | – | – | –
2 | Cc1c(/C=N/NC(=O)c2ccccc2O)c(=O)n(-c2ccccc2)n1C | > 100 µM (inactive) | > 100 µM (inactive) | > 100 µM (inactive) | 29.2 | – | > 100 µM (inactive) | 64.9 µM (inactive) | > 100 µM (inactive) | > 100 µM (inactive) | > 100 µM (inactive) | 58.3 µM (inactive) | > 100 µM (inactive) | > 100 µM (inactive) | > 100 µM (inactive) | 50.2 µM (inactive) | > 100 µM (inactive) | > 100 µM (inactive) | > 100 µM (inactive) | > 100 µM (inactive) | –
3 | CCOP(=O)(OCC)C(Cc1ccc(OC)c(OC)c1)N=C(c1ccccc1)c1ccccc1 (stereo not given) | 46.1 µM (inactive) | 75 µM (inactive) | 37.9 µM (inactive) | 32.5 | 24.7 µM (inactive) | 36.4 µM (inactive) | 27.1 µM (inactive) | 81.7 µM (inactive) | 45.2 µM (inactive) | 68.7 µM (inactive) | – | – | 45.3 µM (inactive) | 36.8 µM (inactive) | 24 µM (inactive) | 47.6 µM (inactive) | < 0.01 µM (active) | 51.8 µM (inactive) | 56.8 µM (inactive) | 71 µM (inactive)
4 | CC(=O)C(/N=N\C1CCC(S(=O)(=O)NB2N=CS2)CC1)C(=O)Nc1ccccc1C (stereo not given) | 13.7 µM (inactive) | 17.7 µM (inactive) | 19.2 µM (inactive) | 10.5 | – | 16 µM (inactive) | 13.5 µM (inactive) | 12.8 µM (inactive) | 17.4 µM (inactive) | 17.9 µM (inactive) | 20 µM (inactive) | 27 µM (inactive) | 15.4 µM (inactive) | 16 µM (inactive) | 19 µM (inactive) | 16.3 µM (inactive) | > 100 µM (inactive) | 19.2 µM (inactive) | 17.9 µM (inactive) | –
5 | CC1(O)CCC2(C#N)CCC1C2O (stereo not given) | > 100 µM (inactive) | > 100 µM (inactive) | – | > 100 | – | > 100 µM (inactive) | 43.5 µM (inactive) | > 100 µM (inactive) | > 100 µM (inactive) | > 100 µM (inactive) | > 100 µM (inactive) | > 100 µM (inactive) | > 100 µM (inactive) | > 100 µM (inactive) | 49 µM (inactive) | – | > 100 µM (inactive) | > 100 µM (inactive) | > 100 µM (inactive) | –
6 | CCOC(=O)CCC(NC(=O)c1ccc(Nc2nc3cc(C(F)(F)F)ccc3nc2C(=O)OCC)cc1)C(=O)OCC (stereo not given) | 11.3 µM (inactive) | 12.6 µM (inactive) | 0.975 µM (active) | 29.9 | > 10 µM (inactive) | > 10 µM (inactive) | 6.75 µM (inactive) | 3.54 µM (inactive) | 17.1 µM (inactive) | 9.16 µM (inactive) | 14 µM (inactive) | – | 12.1 µM (inactive) | 4.18 µM (inactive) | > 100 µM (inactive) | 18.6 µM (inactive) | 95.3 µM (inactive) | 4.51 µM (inactive) | 11 µM (inactive) | 6.87 µM (inactive)
7 | CCCCCNC(=O)c1c(O)[nH]c(=S)[nH]c1=O | 66.8 µM (inactive) | > 100 µM (inactive) | > 100 µM (inactive) | 90.6 | – | > 100 µM (inactive) | > 100 µM (inactive) | 41.6 µM (inactive) | > 100 µM (inactive) | > 100 µM (inactive) | > 100 µM (inactive) | > 100 µM (inactive) | > 100 µM (inactive) | > 100 µM (inactive) | > 100 µM (inactive) | > 100 µM (inactive) | > 100 µM (inactive) | > 100 µM (inactive) | > 100 µM (inactive) | –
8 | COc1cc[n+](C)cc1 | > 100 µM (inactive) | > 100 µM (inactive) | > 100 µM (inactive) | > 100 | > 100 µM (inactive) | > 100 µM (inactive) | > 100 µM (inactive) | > 100 µM (inactive) | > 100 µM (inactive) | > 100 µM (inactive) | > 100 µM (inactive) | > 100 µM (inactive) | > 100 µM (inactive) | > 100 µM (inactive) | > 100 µM (inactive) | > 100 µM (inactive) | > 100 µM (inactive) | – | > 100 µM (inactive) | –
9 | COc1cc(-c2ccc(/N=N/c3c(S(=O)(=O)O)cc4cc(S(=O)(=O)O)cc(N)c4c3O)c(OC)c2)ccc1/N=N/c1c(S(=O)(=O)O)cc2cc(S(=O)(=O)O)cc(N)c2c1O | > 100 µM (inactive) | > 100 µM (inactive) | 34 µM (inactive) | 59.6 | > 100 µM (inactive) | > 86.1 µM (inactive) | > 100 µM (inactive) | > 57 µM (inactive) | > 100 µM (inactive) | – | > 100 µM (inactive) | > 100 µM (inactive) | > 100 µM (inactive) | > 62.1 µM (inactive) | > 88.3 µM (inactive) | 73.5 µM (inactive) | > 78.7 µM (inactive) | – | > 100 µM (inactive) | –
10 | Nc1nccc2c1ncn2[C@H]1C[C@H](O)[C@@H](CO)O1 | > 100 µM (inactive) | – | > 100 µM (inactive) | > 100 | > 100 µM (inactive) | > 100 µM (inactive) | > 100 µM (inactive) | > 100 µM (inactive) | > 100 µM (inactive) | > 100 µM (inactive) | > 100 µM (inactive) | > 100 µM (inactive) | > 100 µM (inactive) | > 100 µM (inactive) | > 100 µM (inactive) | > 100 µM (inactive) | > 100 µM (inactive) | > 100 µM (inactive) | > 100 µM (inactive) | > 100 µM (inactive)
11 | O=c1[nH]c2ccccc2n1CCCN1CCC(n2c(=O)[nH]c3cc(Cl)ccc32)CC1 [DOMPERIDONE] | – | – | 22.2 µM (inactive) | 18.7 | 18 µM (inactive) | 16.9 µM (inactive) | 16.8 µM (inactive) | 17.2 µM (inactive) | 19.2 µM (inactive) | 18.3 µM (inactive) | 18.3 µM (inactive) | 23.7 µM (inactive) | 17 µM (inactive) | 14.6 µM (inactive) | 27.8 µM (inactive) | 17.3 µM (inactive) | 21.4 µM (inactive) | 16 µM (inactive) | 16.9 µM (inactive) | 16.2 µM (inactive)
